Assays:
[1] = tested on: DU145 prostate cancer cells; test: Cell Titer Glo proliferation assay in DU145; assay type: cell-based, human; details: 72 h, Mean ± SEM, n ≥ 3, read-out: IC50 values in prostate cancer cell lines, DU145
Outline: (§1)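 Cells plated at 1,000 cells/well and left at least 24 h, then exposed to compound for 72 h. Permeabilised with 0.1% Triton-X100, lysed with Cell Titer-Glo reagent, luminescence read; IC50 from dose-response curves. PC3 grown in F12K with 10% FCS, DU145 in MEM with 10% FCS and pyruvate.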

[2] = tested on: PC3 prostate cancer cells; test: Cell Titer Glo proliferation assay in PC3; assay type: cell-based, human; details: Cell Titer Glo, 72 h; Mean ± SEM, n ≥ 3; read-out: IC50 values in prostate cancer cell lines, PC3
Outline: as §1

[3] = tested on: subcutaneous SW620 xenograft tumors; test: SW620 xenograft study in nude mice; assay type: in vivo; details: 20 mg/kg daily by intraperitoneal injection
Protocol: In even another exemplary study, anti-neoplasm potency of the constrained pyrrolidine sphingolipid-like compounds in xenograft tumor animal studies. Nude mice bearing subcutaneous SW620 xenograft tumors were treated daily with 10 mg/kg FTY720 or 20 mg/kg of compounds 5 or 15 by intraperitoneal injection. […] Furthermore, these compounds retain many of the beneficial abilities of FTY720, such as, for example water solubility, oral bioavailability, and anti-tumor activity but no longer trigger bradycardia. Thus, these compounds are ideal for medicaments and treatments for neoplasms.
SW620 and SW480 xenograft studies: For SW620 xenograft studies, two and one half million luciferase-expressing SW620 colon cancer cells suspended in PBS with 2% FCS are injected subcutaneously in the flank of 7 week old male nude mice (Charles Rivers Labs, Crl:NU(NCr)-Foxn1nu). When tumors reached 100 mm^3 in volume, mice are assigned to groups with matched average tumor volumes and animal weights. Four groups containing 7 mice are treated intraperitoneally with either vehicle (0.9% saline), 10 mg/kg FTY720, or 20 mg/kg compound 5 or compound 15. Tumor length and width are measured with calipers at 7 and 11 days of treatment. Tumor volume is calculated using the formula volume (mm^3)=length [mm]×(width [mm])^2×0.52. The average fold change in the volume of each tumor over time is shown.

[4] = tested on: fusion of LC3-positive autophagosomes with LAMP1-positive lysosomes; test: Autophagosome-lysosome fusion in chloroquine-treated cells; assay type: cell-based
Protocol: It is known in the art that cells adapt to nutrient stress by increasing autophagic flux. However, autophagosome-lysosome fusion reactions depend upon […] release via TRPML1 channels that are activated by PI(3,5)P2. […] Chloroquine (CQ) is molecule that stabilizes the transient autophagosomes. Cells were treated with CG to stabilize autophagolysosomes and subsequently treated with FTY720, SH-BC-893, or YM201636. […] Phosphatidylinositol 5-Phosphate (PI(5)P) is essential for autophagosome biogenesis upon glucose depletion. PI(5)P is produced by dephosphorylating PI(3,5)P2, and thus PI(5)P might also be mis-localized in SH-BC-893-treated cells, and thus also contributing to the disruption of autophagosome formation. […] Thus, SH-BC-893 inhibited both autophagosome formation and degradation. As a control, Vac14 over-expression limited vacuolation (FIGS. 55F, 61F, and 62B) and rescued autophagic flux in SH-BC-893-treated cells (FIGS. 61A, 61B, 61D and 61E).
(§2) Light Microscopy: Brightfield and epifluorescence microscopy were conducted using a Nikon TE2000-S fluorescence microscope; confocal microscopy was performed on a Zeiss LSM780 confocal microscope or Nikon Eclipse Ti spinning disk confocal microscope. […] Co-localization was determined using JACoP plugin in ImageJ software. Macropinocytosis was measured after 16 h incubation in serum-free DMEM. p53−/−; LSL-K-RasG12D MEFs before (LSL) or after (KRasG12D) introduction of Cre were serum starved for 16 h and then treated with macropinocytosis inhibitor 5-(N-ethyl-N-isopropyl) amiloride (EIPA, 75 μM) for 1 h or SH-BC-893 for 6 h. Oregon Green dextran (Life Technologies, cat #D7173) (1 mg/mL) and Lysotracker Red (Life Technologies, cat #L-7525) (1:2,000 dilution) were added for 30 min and live cells were evaluated on the spinning disc confocal microscope. […]

[5] = tested on: K-RasG12D expressing cells; test: Macropinosome fusion with lysosomes; assay type: cell-based; details: dextran
From the text: In cells with activated Ras, macropinocytosis might also confer resistance to nutrient transporter down-regulation. However, PI(3,5)P2 is also required for macropinosome degradation. […] Macropinosomes that fail to fuse with lysosomes would not be able to supply nutrients, such as amino acids. Thus, by disrupting PIKfyve localization, sphingolipid-like compounds limit access to lysosome-derived nutrients at the same time it down-regulates transporters for amino acids and glucose.
as §2

IC50 [1] [µM]	IC50 [2] [µM]	Compound	tumor growth of SW620 xenografts [3]	fusion of LC3-positive autophagosomes with LAMP1-positive lysosomes [4]	macropinosome fusion with lysosomes [5]
5.9 ± 0.3	6.3 ± 0.3	CCCCCCCCc1ccc([C@H]2CCN[C@@H]2COC)cc1.Cl [Compound 15]	inhibited tumor growth	–	–
–	–	Nc1ccc(C(=O)Nc2cccc(-c3nc(N4CCOCC4)c4oc5ncccc5c4n3)c2)cn1 [YM201636, reference compound]	–	reduced fusion	dramatically reduced macropinosome fusion with lysosomes

From patent publication US10995068B2, “Synthetic sphingolipid-like molecules, drugs, methods of their synthesis and methods of treatment” (The Regents of the University of California, priority 2015, dated 2021)
